According to publication PMC11851430, “Workflow for E3 Ligase Ligand Validation for PROTAC Development” (ACS Chemical Biology, 2025):

Experiments:
Assay in all cases: DSF assay
Type in all cases: binding
Conditions in all cases: 20 µM compound
TAF1A = test system: TAF1A
MARK4A = biological target: T1, MARK4A (Homo sapiens, UniProt Q96L34)
T1 construct: purchased in-house DSF panel (SGC-style construct names; the trailing A/B is a construct suffix)

MAP2K1A = biological target: T2, MAP2K1A (Homo sapiens, UniProt Q02750)
T2 construct: purchased in-house DSF panel (SGC-style construct names; the trailing A/B is a construct suffix)
T2 sequence (Q02750 62-393): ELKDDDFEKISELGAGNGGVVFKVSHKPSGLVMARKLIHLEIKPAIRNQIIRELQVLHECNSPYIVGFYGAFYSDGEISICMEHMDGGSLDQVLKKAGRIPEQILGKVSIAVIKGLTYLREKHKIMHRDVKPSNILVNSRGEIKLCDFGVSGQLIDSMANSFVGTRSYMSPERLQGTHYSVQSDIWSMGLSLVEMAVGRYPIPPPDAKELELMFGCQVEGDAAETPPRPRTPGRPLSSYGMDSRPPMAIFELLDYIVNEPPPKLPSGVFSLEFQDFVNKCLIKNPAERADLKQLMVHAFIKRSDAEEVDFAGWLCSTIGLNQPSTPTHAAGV
Method: (§1) Excitation and emission filters […]
(§2) curve. […] Measurements were
(§3) Kinobeads selectivity profiling of PROTACs
(§4) (Multiplexion, Heidelberg, Germany).
(§5) The cell lysate was ultracentrifuged and diluted
(§6) NaF, 1 mM DTT, protease inhibitors and phosphatase inhibitors to a final concentration of 5 mg/ml as determined by Bradford assay. For selectivity profiling of compounds the cell lysate (2.5 mg of total proteins per pulldown) was pre-incubated with increasing compound […]
(§7) µM) for 45 min at 4 °C in an end-over-end shaker. Subsequently, lysates were incubated with Kinobeads epsilon (17 µL settled beads) for 30 min at 4 °C. To assess the degree of protein depletion from the lysates by Kinobeads, the flow-through of the DMSO control was recovered

DAPK3A = biological target: T3, DAPK3A (Homo sapiens, UniProt O43293)
T3 construct: purchased in-house DSF panel (SGC-style construct names; the trailing A/B is a construct suffix)
T3 sequence (O43293 9-289): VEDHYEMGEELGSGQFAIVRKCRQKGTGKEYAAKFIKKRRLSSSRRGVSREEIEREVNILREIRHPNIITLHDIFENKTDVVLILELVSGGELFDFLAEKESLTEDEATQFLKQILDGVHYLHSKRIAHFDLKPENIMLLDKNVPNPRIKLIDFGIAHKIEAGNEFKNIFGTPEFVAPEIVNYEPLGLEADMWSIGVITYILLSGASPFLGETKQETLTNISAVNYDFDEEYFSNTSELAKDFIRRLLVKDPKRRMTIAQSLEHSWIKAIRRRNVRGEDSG
Method: as §1, §2, §3, §4, §5, §6, §7

RPS6KA1A = test system: RPS6KA1A
Method: as §1, §2, §3, §4, §5, §6, §7

CK2A1A = biological target: T4, CK2A1A (Homo sapiens, UniProt P68400)
T4 construct: purchased in-house DSF panel (SGC-style construct names; the trailing A/B is a construct suffix)
T4 sequence (P68400 whole entry): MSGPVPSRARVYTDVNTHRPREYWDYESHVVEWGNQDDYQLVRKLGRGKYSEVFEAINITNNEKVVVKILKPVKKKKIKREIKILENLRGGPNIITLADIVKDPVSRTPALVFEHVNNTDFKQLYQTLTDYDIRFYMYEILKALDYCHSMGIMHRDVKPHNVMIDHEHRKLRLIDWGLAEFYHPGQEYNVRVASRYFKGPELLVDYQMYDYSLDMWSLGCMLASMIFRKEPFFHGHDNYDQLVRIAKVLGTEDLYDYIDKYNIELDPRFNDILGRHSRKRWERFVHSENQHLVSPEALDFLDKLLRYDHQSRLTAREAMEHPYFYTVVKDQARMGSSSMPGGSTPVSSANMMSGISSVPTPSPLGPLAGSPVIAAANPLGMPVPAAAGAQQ
Method: as §1, §2, §3, §4, §5, §6, §7

CAMK2DA = biological target: T5, CAMK2DA (Homo sapiens, UniProt Q13557)
T5 construct: purchased in-house DSF panel (SGC-style construct names; the trailing A/B is a construct suffix)
T5 sequence (Q13557 11-309): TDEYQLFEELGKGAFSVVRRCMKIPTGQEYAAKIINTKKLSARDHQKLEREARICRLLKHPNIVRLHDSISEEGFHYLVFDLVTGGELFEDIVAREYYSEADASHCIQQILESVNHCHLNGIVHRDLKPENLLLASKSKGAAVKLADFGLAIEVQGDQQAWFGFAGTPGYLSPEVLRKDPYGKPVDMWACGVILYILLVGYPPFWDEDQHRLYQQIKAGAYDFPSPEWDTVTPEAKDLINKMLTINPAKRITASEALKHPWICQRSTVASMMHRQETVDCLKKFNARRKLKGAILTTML
Method: as §1, §2, §3, §4, §5, §6, §7

BRD4 = biological target: T6, BRD4 (Homo sapiens, UniProt O60885)
T6 construct: purchased in-house DSF panel (SGC-style construct names; the trailing A/B is a construct suffix)
Method: as §1, §2, §3, §4, §5, §6, §7

CLK3A = biological target: T7, CLK3A (Homo sapiens, UniProt P49761)
T7 construct: purchased in-house DSF panel (SGC-style construct names; the trailing A/B is a construct suffix)
T7 sequence (P49761 127-484): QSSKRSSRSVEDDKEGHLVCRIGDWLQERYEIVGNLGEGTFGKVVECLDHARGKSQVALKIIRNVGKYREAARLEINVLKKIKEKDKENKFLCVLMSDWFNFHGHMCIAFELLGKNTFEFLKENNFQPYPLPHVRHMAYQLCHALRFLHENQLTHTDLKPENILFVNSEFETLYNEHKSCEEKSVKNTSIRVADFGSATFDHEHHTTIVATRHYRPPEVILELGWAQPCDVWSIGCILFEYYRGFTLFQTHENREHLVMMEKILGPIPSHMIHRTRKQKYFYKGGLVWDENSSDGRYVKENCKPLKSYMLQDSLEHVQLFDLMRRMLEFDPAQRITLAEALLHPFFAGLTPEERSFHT
Method: as §1, §2, §3, §4, §5, §6, §7

NEK2A = biological target: T8, NEK2A (Homo sapiens, UniProt P51955)
T8 construct: purchased in-house DSF panel (SGC-style construct names; the trailing A/B is a construct suffix)
T8 sequence (P51955 1-271): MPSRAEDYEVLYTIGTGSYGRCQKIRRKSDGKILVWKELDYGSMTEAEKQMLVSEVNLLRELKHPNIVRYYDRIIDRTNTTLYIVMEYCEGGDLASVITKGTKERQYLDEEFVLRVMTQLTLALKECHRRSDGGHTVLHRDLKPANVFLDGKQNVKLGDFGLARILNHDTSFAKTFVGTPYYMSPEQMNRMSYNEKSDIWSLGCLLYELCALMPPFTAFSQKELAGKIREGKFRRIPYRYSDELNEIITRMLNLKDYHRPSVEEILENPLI
Method: as §1, §2, §3, §4, §5, §6, §7

SRPK1 = biological target: T9, SRPK1 (Homo sapiens, UniProt Q96SB4)
T9 construct: purchased in-house DSF panel (SGC-style construct names; the trailing A/B is a construct suffix)
T9 sequence (Q96SB4 whole entry): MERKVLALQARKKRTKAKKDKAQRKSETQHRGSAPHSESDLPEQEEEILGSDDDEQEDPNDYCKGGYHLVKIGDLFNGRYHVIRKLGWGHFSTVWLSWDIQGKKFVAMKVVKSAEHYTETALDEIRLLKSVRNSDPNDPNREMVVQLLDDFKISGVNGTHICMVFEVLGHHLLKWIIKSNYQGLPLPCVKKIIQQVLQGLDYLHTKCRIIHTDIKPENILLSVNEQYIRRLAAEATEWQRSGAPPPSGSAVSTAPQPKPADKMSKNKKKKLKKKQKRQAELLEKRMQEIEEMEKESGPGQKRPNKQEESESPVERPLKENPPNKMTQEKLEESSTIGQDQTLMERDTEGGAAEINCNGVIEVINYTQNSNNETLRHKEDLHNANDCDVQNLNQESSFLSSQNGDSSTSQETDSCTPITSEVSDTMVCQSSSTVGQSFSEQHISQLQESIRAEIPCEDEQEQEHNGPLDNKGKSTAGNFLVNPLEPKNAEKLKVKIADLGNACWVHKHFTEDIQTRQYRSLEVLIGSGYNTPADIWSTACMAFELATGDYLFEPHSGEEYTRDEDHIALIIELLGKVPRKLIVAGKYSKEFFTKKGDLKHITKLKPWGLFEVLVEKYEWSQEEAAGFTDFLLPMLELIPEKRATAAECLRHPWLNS
Method: as §1, §2, §3, §4, §5, §6, §7

MAPK9A = biological target: T10, MAPK9A (Homo sapiens, UniProt P45984)
T10 construct: purchased in-house DSF panel (SGC-style construct names; the trailing A/B is a construct suffix)
T10 sequence (P45984 1-364): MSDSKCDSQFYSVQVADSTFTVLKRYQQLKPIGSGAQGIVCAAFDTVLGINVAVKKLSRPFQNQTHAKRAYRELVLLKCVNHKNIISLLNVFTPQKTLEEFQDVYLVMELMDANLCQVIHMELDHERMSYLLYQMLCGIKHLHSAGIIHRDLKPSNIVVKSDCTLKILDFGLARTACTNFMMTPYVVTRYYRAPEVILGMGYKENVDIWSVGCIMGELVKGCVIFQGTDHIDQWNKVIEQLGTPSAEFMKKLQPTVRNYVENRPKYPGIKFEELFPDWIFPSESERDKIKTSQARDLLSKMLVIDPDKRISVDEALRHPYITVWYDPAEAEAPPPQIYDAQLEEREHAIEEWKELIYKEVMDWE
Method: as §1, §2, §3, §4, §5, §6, §7

SLKA = biological target: T11, SLKA (Homo sapiens, UniProt Q9H2G2)
T11 construct: purchased in-house DSF panel (SGC-style construct names; the trailing A/B is a construct suffix)
Method: as §1, §2, §3, §4, §5, §6, §7

MAPK8B = biological target: T12, MAPK8B (Homo sapiens, UniProt P45983)
T12 construct: purchased in-house DSF panel (SGC-style construct names; the trailing A/B is a construct suffix)
T12 sequence (P45983 1-364): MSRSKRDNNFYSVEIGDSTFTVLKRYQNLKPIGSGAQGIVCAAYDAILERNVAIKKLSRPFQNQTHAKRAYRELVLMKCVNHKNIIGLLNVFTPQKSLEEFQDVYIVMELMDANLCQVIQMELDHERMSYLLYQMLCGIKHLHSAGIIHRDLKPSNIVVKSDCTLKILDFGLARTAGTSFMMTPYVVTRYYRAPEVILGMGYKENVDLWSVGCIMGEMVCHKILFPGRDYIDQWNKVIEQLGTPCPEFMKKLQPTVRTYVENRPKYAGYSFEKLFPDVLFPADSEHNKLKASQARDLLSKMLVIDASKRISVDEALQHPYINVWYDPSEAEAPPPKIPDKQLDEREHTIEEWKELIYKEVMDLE
Method: as §1, §2, §3, §4, §5, §6, §7

PIM1A = biological target: T13, PIM1A (Homo sapiens, UniProt P11309)
T13 construct: purchased in-house DSF panel (SGC-style construct names; the trailing A/B is a construct suffix)
T13 sequence (P11309 whole entry): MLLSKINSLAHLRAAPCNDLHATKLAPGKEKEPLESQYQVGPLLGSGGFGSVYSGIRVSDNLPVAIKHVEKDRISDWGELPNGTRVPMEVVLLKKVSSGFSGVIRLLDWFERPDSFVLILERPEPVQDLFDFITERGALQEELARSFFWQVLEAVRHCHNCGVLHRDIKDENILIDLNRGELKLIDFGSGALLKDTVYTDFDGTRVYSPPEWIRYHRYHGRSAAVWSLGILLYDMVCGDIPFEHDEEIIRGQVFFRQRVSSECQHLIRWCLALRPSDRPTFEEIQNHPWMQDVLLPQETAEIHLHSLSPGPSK
Method: as §1, §2, §3, §4, §5, §6, §7

GAKA = biological target: T14, GAKA (Homo sapiens, UniProt O14976)
T14 construct: purchased in-house DSF panel (SGC-style construct names; the trailing A/B is a construct suffix)
T14 sequence (O14976 14-351): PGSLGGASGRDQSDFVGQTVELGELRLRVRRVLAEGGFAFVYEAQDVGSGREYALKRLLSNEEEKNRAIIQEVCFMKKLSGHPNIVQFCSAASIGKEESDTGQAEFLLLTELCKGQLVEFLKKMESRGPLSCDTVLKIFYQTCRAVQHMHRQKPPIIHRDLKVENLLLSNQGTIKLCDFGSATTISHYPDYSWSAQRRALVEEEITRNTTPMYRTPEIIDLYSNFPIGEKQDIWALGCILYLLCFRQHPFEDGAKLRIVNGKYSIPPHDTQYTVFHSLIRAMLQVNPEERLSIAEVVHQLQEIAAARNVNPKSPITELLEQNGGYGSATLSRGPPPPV

DMPK1A = biological target: T15, DMPK1A (Homo sapiens, UniProt Q09013)
T15 construct: purchased in-house DSF panel (SGC-style construct names; the trailing A/B is a construct suffix)
T15 sequence (Q09013 1-629): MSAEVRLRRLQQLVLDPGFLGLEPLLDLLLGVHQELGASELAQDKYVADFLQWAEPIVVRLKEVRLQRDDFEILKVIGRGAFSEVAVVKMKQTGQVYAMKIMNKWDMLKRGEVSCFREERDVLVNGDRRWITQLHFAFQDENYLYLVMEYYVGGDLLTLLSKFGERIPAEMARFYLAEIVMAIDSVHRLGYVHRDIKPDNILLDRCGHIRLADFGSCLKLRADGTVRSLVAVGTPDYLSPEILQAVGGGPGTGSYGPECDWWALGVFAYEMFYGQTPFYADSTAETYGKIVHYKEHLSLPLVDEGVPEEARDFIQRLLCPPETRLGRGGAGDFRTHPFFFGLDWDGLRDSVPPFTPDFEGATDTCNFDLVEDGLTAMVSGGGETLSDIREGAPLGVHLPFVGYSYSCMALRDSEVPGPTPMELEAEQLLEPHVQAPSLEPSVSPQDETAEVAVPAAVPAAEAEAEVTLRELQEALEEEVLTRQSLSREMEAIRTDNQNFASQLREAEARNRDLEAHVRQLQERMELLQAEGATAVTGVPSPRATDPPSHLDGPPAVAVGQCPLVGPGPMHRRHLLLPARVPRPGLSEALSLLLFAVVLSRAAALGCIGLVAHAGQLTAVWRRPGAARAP

FGFR2A = biological target: T16, FGFR2A (Homo sapiens, UniProt P21802)
T16 construct: purchased in-house DSF panel (SGC-style construct names; the trailing A/B is a construct suffix)
T16 sequence (P21802 458-770): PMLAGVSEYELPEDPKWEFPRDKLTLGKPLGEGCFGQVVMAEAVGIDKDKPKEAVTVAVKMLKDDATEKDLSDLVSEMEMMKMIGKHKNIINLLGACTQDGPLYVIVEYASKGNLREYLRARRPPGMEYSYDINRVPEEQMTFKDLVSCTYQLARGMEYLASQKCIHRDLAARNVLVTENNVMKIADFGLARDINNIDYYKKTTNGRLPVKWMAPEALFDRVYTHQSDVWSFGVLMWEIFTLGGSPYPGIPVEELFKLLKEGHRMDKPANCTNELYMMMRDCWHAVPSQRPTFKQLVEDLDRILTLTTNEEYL

PCTK1A = biological target: T17, PCTK1A (Homo sapiens, UniProt Q00536)
T17 construct: purchased in-house DSF panel (SGC-style construct names; the trailing A/B is a construct suffix)
T17 sequence (Q00536 163-478): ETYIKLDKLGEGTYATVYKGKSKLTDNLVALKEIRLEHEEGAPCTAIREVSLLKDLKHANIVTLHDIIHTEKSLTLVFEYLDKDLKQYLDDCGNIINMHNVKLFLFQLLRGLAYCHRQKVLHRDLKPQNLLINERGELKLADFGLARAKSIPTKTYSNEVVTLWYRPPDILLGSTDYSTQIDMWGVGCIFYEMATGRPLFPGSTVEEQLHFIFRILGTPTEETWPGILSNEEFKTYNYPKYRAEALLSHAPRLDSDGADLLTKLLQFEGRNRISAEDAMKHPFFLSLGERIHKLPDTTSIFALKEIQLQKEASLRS

MST3A = biological target: T18, MST3A (Homo sapiens, UniProt Q9Y6E0)
T18 construct: purchased in-house DSF panel (SGC-style construct names; the trailing A/B is a construct suffix)
T18 sequence (Q9Y6E0 4-301): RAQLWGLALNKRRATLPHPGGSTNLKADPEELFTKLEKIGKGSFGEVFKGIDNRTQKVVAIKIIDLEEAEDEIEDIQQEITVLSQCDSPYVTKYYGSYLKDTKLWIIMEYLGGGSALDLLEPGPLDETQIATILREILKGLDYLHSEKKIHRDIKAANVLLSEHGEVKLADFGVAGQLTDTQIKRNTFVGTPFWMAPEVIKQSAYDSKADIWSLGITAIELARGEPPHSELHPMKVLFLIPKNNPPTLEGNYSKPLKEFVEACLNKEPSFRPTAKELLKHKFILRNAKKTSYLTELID

T1 sequence (Q96L34 59-310): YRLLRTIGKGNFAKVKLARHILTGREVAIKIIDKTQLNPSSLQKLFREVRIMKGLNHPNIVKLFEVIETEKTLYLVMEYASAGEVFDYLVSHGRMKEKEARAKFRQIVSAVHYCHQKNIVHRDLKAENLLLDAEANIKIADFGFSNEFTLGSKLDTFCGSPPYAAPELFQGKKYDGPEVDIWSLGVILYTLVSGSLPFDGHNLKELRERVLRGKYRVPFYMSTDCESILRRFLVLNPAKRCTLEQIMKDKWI

| ΔTm at 20 µM (MARK4A) [°C] | ΔTm at 20 µM (MAP2K1A) [°C] | ΔTm at 20 µM (DAPK3A) [°C] | ΔTm at 20 µM (CK2A1A) [°C] | ΔTm at 20 µM (CAMK2DA) [°C] | ΔTm at 20 µM (BRD4) [°C] | ΔTm at 20 µM (CLK3A) [°C] | ΔTm at 20 µM (NEK2A) [°C] | ΔTm at 20 µM (SRPK1) [°C] | ΔTm at 20 µM (MAPK9A) [°C] | ΔTm at 20 µM (SLKA) [°C] | ΔTm at 20 µM (MAPK8B) [°C] | ΔTm at 20 µM (PIM1A) [°C] | ΔTm at 20 µM (GAKA) [°C] | ΔTm at 20 µM (DMPK1A) [°C] | ΔTm at 20 µM (FGFR2A) [°C] | ΔTm at 20 µM (PCTK1A) [°C] | ΔTm at 20 µM (MST3A) [°C] | Structure (SMILES) | ΔTm (TAF1A) [°C] | ΔTm (RPS6KA1A) [°C] |
| --- | --- | --- | --- | --- | --- | --- | --- | --- | --- | --- | --- | --- | --- | --- | --- | --- | --- | --- | --- | --- |
| 6.16 | 1.66 | 7.59 | 3.81 | 2.15 | 0.18 | 6.42 | 2.97 | 0.76 | 4.27 | 11.3 | 6.93 | -0.76 | 5.92 | 3.19 | 7.61 | 4.55 | 8.31 | CC(C)(C)OC(=O)NCCOCCOCCOCCOCCC(=O)N1CCN(c2cc(Nc3cc(C4CC4)[nH]n3)nc(Nc3ccc(CC#N)cc3)n2)CC1 [4-L] | -0.59 | 0.76 |
| 3.21 | 1.17 | 7.97 | 5.58 | 3.75 | -0.79 | 9.33 | 0.77 | 2.8 | 4.61 | 8.84 | 6.48 | -1.48 | 3.75 | 3.69 | 3.37 | 4.53 | 3.47 | CC(C)(C)OC(=O)NCCCOCCOCCOCCCNC(=O)c1cc(Nc2cc(C3CC3)[nH]n2)nc(Nc2ccc(CC#N)cc2)n1 [5-L] | 0.26 | 1.85 |
| 6.15 | 1.56 | 10.6 | 3.87 | 3.37 | 1.16 | 9.57 | 2.25 | 4.31 | 2.84 | 9.06 | 4.31 | -0.9 | 4.56 | 3.8 | 6.36 | 5.96 | 7.56 | CCOC(=O)c1cc(Nc2cc(C3CC3)[nH]n2)nc(Nc2ccc(CC#N)cc2)n1 [compound 5] | 0.35 | 1.55 |
